From patent publication US20260355318A1, “MOLECULAR MACHINES FOR TREATMENT OF CANCER, FUNGAL INFECTIONS, OR BACTERIAL INFECTIONS” (priority 2022, published 2026)

What was measured:
E. cloacae = test: MIC, E. cloacae; format: cell-based; details: Enterobacter cloacae, read-out: MIC of MM
Experimental: The appropriate volume of an MM stock at 8 mM necessary to achieve a concentration ranging from 0.3125 to 40 μM was pipetted into a 2 mL microcentrifuge tube to which 1 mL of cell suspension prepared as previously described was added. Corresponding negative controls (DMSO only) were prepared in the same way. The mixture was gently mixed by pipetting and incubated in the dark at 30 or 37 ° C, depending on the strain, for 30 min with agitation (220 rpm). Afterward, MM- or DMSO-treated cells were dispensed in one well of a 24-well plate positioned in the center of the light beam (405 nm LED Light, Prizmatix, UHP—F-5-405) placed at the appropriate distance necessary to achieve the desired light intensity of 304 mW cm-2, 146 mW cm2 or 87 mW cm2, as measured with a handheld digital power meter console coupled to an S415C thermal power sensor head (Thorlabs, Newton, MA, USA). The temperature during irradiation was monitored using a thermocouple probe (Model SC-TT-K-30-36-PP; Omega Engineering, Inc., Stanford, CT, USA). Samples were agitated during irradiation. Dark controls were prepared as previously described except that no irradiation was provided. […]

C. albicans [1] = test: Lipid peroxidation (TBARS, MDA); format: cell-based, Candida albicans; details: 2×MIC
Experimental: (§1) Superoxide dismutase (SOD) activity was determined using a Superoxide Dismutase Assay Kit (Caymanchem, MI, USA) per the distributor's instructions. Lipid peroxidation was determined using a TBARS assay kit (TCA method) (Caymanchem, MI, USA) per the distributor's instructions. SOD activity and MDA levels were normalized by protein content determined by the Pierce assay (Pierce™ BCA Protein Assay Kit, Thermo Fisher Scientific, MA, USA).

E. coli transcripts = test: RNAseq of MM 1-treated E. coli; format: cell-based, Escherichia coli
Experimental: Three independent, well-isolated colonies of E. coli were cultured to mid-log phase in MHB media. Cells were collected and resuspended in PBS (1×) to an OD600 of ≈0.05. […] Cells were then irradiated for 5 min at 146 mW cm^−2 (43.8 J cm^−2). Bacterial cells were collected onto a 0.2 μm PES filter by low vacuum filtration. Two volumes of RNAprotect (Qiagen, Valencia, CA) were added to the cells, and the samples were then centrifuged at 5000 g for 25 min at 4 ° C to pellet cells. RNA was isolated using the RNeasy Mini Kit (Qiagen, Valencia, CA) per the manufacturer's instructions. RNA sequencing (RNAseq) and data analysis were performed by DNA Link Inc. (Seoul, Republic of Korea). RNA-Seq libraries were constructed by using TruSeq Stranded Total RNA with Ribo-Zero Plus rRNA Depletion Kit and sequenced on the Illumina NovaSeq6000 platform (Illumina, San Diego, CA) in the 100 nt, paired-end configuration. From each sample, an average of 70 million reads was obtained. For gene expression analysis, reads were trimmed with cutadapt (Magoc et al., 2013) and aligned to the reference genome of Escherichia coli str. K-12 substr. MG1655 (NC_000913) using EDGE-pro pipeline with default setting. Differential expression analysis was performed with DESeq2 in Bioconductor (Love et al., 2014). Gene annotation was performed using an in-house script based on NCBI reference annotations.

superoxide dismutase = test: Superoxide dismutase (SOD) activity; format: cell-based, Candida albicans; details: 0.5×MIC, p<0.05
Experimental: as §1

E. coli = test: Protein carbonyl levels, E. coli; format: cell-based, Escherichia coli; details: 1×MIC MM 1
C. albicans [2] = test: In vivo G. mellonella model, C. albicans infection (survival, fungal burden); design: species or system Galleria mellonella; details: C. albicans-infected G. mellonella, 1×MIC
Experimental: The in vivo antifungal activity of MMs was assessed in G. mellonella (Li et al., 2013; (Slater et al., 2011). G. mellonella were acquired from a commercial supplier (rainbowmealworms.net) in their final instar larval stage. Worms of similar size (~0.3 g), responsive to touch, and displaying no signs of melanization were selected. C. albicans (~10^5 CFU mL^−1) and A. fumigatus conidia (~104 conidia mL^−1) suspensions were prepared in PBS as previously described. The fungal inoculum (5 μL) was injected into the last left proleg of the worms with a Hamilton syringe. Thirty minutes after infection, MM and/or antifungal agents (1×MIC, Table 2) diluted in sterile water were injected similarly to the right proleg. […] After 30 min, worms in the irradiated treatment groups were transferred to 24-well plates (Corning-Costar Corp., Corning, NY, USA) and irradiated with 405-nm light (87.6 J cm^−2). Worms were incubated in sterile Petri dishes at 30 ° C in the dark. Live and dead worms were scored each day for 7 days. Melanized or unresponsive worms were considered dead.
Fungal load was assessed in a separate group of similarly treated worms 48 h after infection. Only healthy larvae (four worms per treatment group) with no melanization spots were used. […] After 48 h at 30 ° C (C. albicans) or 7 days at 28 ° C (A. fumigatus), colonies were counted to determine CFU per mg of larvae.

**Q.** What does the source list for `C[C@@H]1Cc2ccc3ccccc3c2/C1=C1\c2ccccc2Sc2cc(NCCN)ccc21` (racemic) [MM 6, N^1-(9-(2-methyl-2,3-dihydro-1H-cyclopenta[a]naphthalen-1-ylidene)-9H-thioxanthen-3-yl)ethane-1,2-diamine]?
**A.** MIC (E. cloacae): 10 µM; lipid peroxidation product levels (C. albicans [1]): increased levels of the lipid peroxidation product malonaldehyde

**Q.** What does the source list for `C[C@@H]1Cc2ccc3ccccc3c2/C1=C1\c2ccccc2Sc2cc(NCCN(C)C)ccc21` [MM 1, N^1N^1-dimethyl-N^2-(9-(2-methyl-2,3-dihydro-1H-cyclopenta[a]naphthalen-1-ylidene)-9H-thioxanthen-3-yl) ethane-1,2-diamine]?
**A.** transcripts significantly more abundant in MM-treated samples (E. coli transcripts; 0.5×MIC): 1362 transcripts; transcripts with significantly different levels vs DMSO (E. coli transcripts; 0.5×MIC, p<0.05): 2694 transcripts; transcripts significantly more abundant in DMSO controls (E. coli transcripts; MM 1 0.5×MIC versus DMSO): 1332 transcripts; maximum difference in transcript abundance between treatments (E. coli transcripts; MM 1 versus DMSO): ≤ 5 fold; Transcript Fold Change, argC (E. coli transcripts; gene argC, p<0.05, 5 min): 2.0; Transcript Fold Change, argF (E. coli transcripts; gene argF, p<0.05, 5 min): 2.2; Transcript Fold Change, argI (E. coli transcripts; gene argI, p<0.05, 5 min): 2.8; Transcript Fold Change, artJ (E. coli transcripts; gene artJ, p<0.05, 5 min): 2.5; Transcript Fold Change, asr (E. coli transcripts; gene asr, p<0.05, 5 min): 2.2; Transcript Fold Change, bfd (E. coli transcripts; gene bfd, p<0.05, 5 min): 2.0; Transcript Fold Change, cdh (E. coli transcripts; gene cdh, p<0.05, 5 min): 2.5; Transcript Fold Change, prpB (E. coli transcripts; gene prpB, p<0.05, 5 min): 5.5; Transcript Fold Change, prpC (E. coli transcripts; gene prpC, p<0.05, 5 min): 5.0; Transcript Fold Change, tauA (E. coli transcripts; gene tauA, p<0.05, 5 min): 2.5; Transcript Fold Change, tynA (E. coli transcripts; gene tynA, p<0.05, 5 min): 2.6; Transcript Fold Change, yiaW (E. coli transcripts; gene yiaW, p<0.05, 5 min): 2.2; Transcript Fold Change, ymdF (E. coli transcripts; gene ymdF, p<0.05, 5 min): 2.4; Transcript Fold Change, ymgC (E. coli transcripts; gene ymgC, p<0.05, 5 min): 2.3; superoxide dismutase activity (superoxide dismutase): increased superoxide dismutase activity; protein carbonyl levels (E. coli): not significantly changed; time by which all worms died (C. albicans [2]): ≤ 3 days
